This note sets out measurements from PMC11106165, “Repurposing the KCa3.1 Blocker Senicapoc for Ischemic Stroke” (Translational Stroke Research, 2023).

For one experiment, the target named is T1, human tPA (Homo sapiens, UniProt P00750).
T1 construct: purchased Abcam ab108905
Put plainly: Chromogenic tPA activity assay. In kind it is biochemical. As to conditions: 0.5 μM and 5 μM, 30-min assay, PBS with 10% human serum. The text has this:
The commercially available tPA Activity Assay Kit (Abcam, ab108905) was used to assess whether senicapoc and TRAM-34 affect the ability of human tPA to cleave its substrate plasminogen similar to protocols published by Lapchak and Boitano [38] and Lapchak et al.. Reactions were run in optically clear flat-bottom 96-well plates (Corning, Catalog #3904). Human plasminogen activator inhibitor-1 (PAI-1; Sigma-Aldrich CC4075) was used as a positive control. Human plasminogen, the chromogenic plasmin substrate, and human tPA were included in the tPA Activity Assay Kit. […] The reactions were pre-incubated at 37 °C for 5 min prior to the addition of the chromogenic plasmin substrate and subsequently placed in a heated SpectraMax M5 spectrophotometer. Absorbances at 405 nm were measured every 30 s for 30 min.

Another experiment deals with T2, KCa3.1 (Mus musculus, UniProt O89109).
T2 construct: endogenous in cells; host or cells: immortalized mouse microglial cell (MMC) line
Description: Whole-cell patch-clamp of KCa3.1 currents in mouse microglial cells (MMC). In kind it is cell-based. The settings on record: 1 µM free Ca2+, ramp -120 to +40 mV, mean ± 95% confidence interval, n = 4, read-out: IC50 for block of microglial KCa3.1 currents. As to the method: An immortalized mouse microglial cell (MMC) line was kindly provided by Dr. D.T. Golenbock (University of Massachusetts Medical School, Worcester, MA) and previously used by our laboratory. Cells were cultured in Gibco’s Dulbecco’s modified Eagle’s Medium (DMEM, high glucose, L-glutamine, high pyruvate) with 5% CO2 at 37° with 1% penicillin/streptomycin and 10% fetal bovine serum. For the qPCR experiments, cells were seeded at 200,000 cells/mL; 24 h later, medium was changed to DMEM with 2% FBS and cells were stimulated with 100 ng/mL lipopolysaccharide (LPS), in the presence or absence of senicapoc, or a 0.2% DMSO control. Cells were pre-incubated with senicapoc for 1 h prior to stimulation and harvested 24 h after stimulation.
MMCs were plated on poly-lysine-coated glass coverslips and KCa3.1 currents recorded in the whole-cell mode of the patch-clamp technique with an EPC-10 HEKA amplifier and 1 microM of free Ca^2+ in the pipette solution as previously described.

In experiment [1] the test system is male C57BL/6 J mice, tMCAO. Put plainly: tMCAO (60 min) in mice, infarct area by T2-weighted MRI. In kind it is in vivo, mouse. The method, then: Reversible focal cerebral ischemia was induced by occlusion of the left middle cerebral artery (MCA) according to the classic filament method of Zea Longa as previously described for mice by our laboratory. All surgeries were performed in the MicroSurgery Core of the UC Davis School of Medicine by a microsurgeon with 20 years of surgical experience using a silicone rubber-coated nylon monofilament with a tip diameter of 0.21 ± 0.02 mm (No. 702112PK5Re, Doccol Corporation). Anesthesia was induced with 5% isoflurane and then maintained with 0.5 to 1.5% isoflurane in medical pure oxygen administered through a facemask. To assure consistent and continuous reduction of cerebral blood flow (CBF), a laser Doppler (Moor Instruments: MOORVMS-LDF) probe adapter was affixed to the surface of the skull over the brain area supplied by the MCA using dental cement. The probe remained in place throughout the MCAO surgery and CBF was measured continuously to confirm occlusion and later establishment of reperfusion. Animals were kept under anesthesia and body temperature was monitored throughout the whole procedure and maintained at > 36.5 °C using a feedback-controlled heating pad. Following 60 min of MCAO, the filament was withdrawn to allow reperfusion. Blood flow measurements were continued for another 15 min before removing the adapter and the laser Doppler probe. Animals received subcutaneous Buprenex at 0.02 mg/kg every 12 h to limit post-surgical pain for 24 h after surgery. The survival rate was 93%. […] In this study, out of the animals surviving to day 8 (45 out of 48), two animals were excluded because they lacked an obvious neurological deficit score at 12 h. Animals that met inclusion criteria were assigned to the 3 groups (low- and high-dose senicapoc or vehicle) based on a computer-generated randomization scheme. […]
Infarct volume was evaluated with T2-weighted MRI imaging in the Nuclear Magnetic Resonance Facility at UC Davis. […] The multi-slice multi-echo (sequence (TE:56 ms; TR: 1681.2 ms) was used to acquire images of 7 coronal sections with 1-mm thickness from the junction of olfactory bulb and cortex. The infarct area was analyzed with Adobe Photoshop Elements by an investigator blinded to the treatments. On day 3, infarct area was corrected for edema and calculated with the equation: (L − N)/L × 100%; L, left (contralateral) hemisphere area; N, non-infarcted tissue area in the ipsilateral hemisphere. By day 8 post tMCAO, there typically is either only minimal or no associated cerebral edema, so no correction for edema is required and the percentage of infarcted area was calculated with the equation: (Infarct Area/Ipsilateral Hemisphere Area) × 100%.

Each structure is given as a SMILES string. “And” between values parts separate entries of the source, which are not always exact repeats. Equal entries are not always repeated.

T1 sequence (P00750 36-562): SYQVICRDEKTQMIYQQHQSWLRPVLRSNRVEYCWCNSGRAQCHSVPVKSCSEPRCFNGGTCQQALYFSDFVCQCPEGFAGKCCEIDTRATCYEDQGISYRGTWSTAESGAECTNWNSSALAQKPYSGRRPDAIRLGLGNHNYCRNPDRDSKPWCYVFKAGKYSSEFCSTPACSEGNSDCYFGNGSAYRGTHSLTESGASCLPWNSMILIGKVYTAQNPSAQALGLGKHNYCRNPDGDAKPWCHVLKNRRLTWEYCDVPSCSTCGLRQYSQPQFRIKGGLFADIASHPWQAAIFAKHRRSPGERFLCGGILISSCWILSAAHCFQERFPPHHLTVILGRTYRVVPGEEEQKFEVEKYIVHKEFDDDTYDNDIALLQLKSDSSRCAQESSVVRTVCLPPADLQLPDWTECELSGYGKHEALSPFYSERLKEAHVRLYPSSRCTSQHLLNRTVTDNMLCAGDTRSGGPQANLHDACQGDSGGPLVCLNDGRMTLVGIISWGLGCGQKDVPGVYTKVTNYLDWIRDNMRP

On to `NC(=O)C(c1ccccc1)(c1ccc(F)cc1)c1ccc(F)cc1` [senicapoc], for which the “effect on tPA activity (absorbance at 405 nm)” value on human tPA is on record as “no effect”. Besides, the IC50 (usually the point on the concentration scale where inhibition reaches its midpoint) on KCa3.1 was 7 nM and 6.97 nM. For the same compound, the T2-weighted lesion area in experiment [1] (10 mg/kg IP twice daily started 12 h after reperfusion, day 8, n = 7, vehicle 20.5 ± 1.3%) worked out at 11.6 ± 1.1%; in experiment [1] (40 mg/kg IP twice daily started 12 h after reperfusion, day 8, n = 7, vehicle 20.5 ± 1.3%) it was 9.3 ± 1.3%; in experiment [1] (40 mg/kg started 3 h after tMCAO, day 3, n = 8, P = 0.199, vehicle 21.4 ± 2.3%), 16.1 ± 3.1%; in experiment [1] (40 mg/kg started 3 h after tMCAO, day 8, n = 8, P = 0.0318, vehicle 16.6 ± 1.0%), 11.7 ± 1.8%.
